US20230303486A1, “CYCLOBUTYL-UREA DERIVATIVES” (Idorsia Pharmaceuticals Ltd, priority 2020, published 2023)
Where two headings read alike, the source gives them in different places.

Legend:
[1] = tested on: primary neuronal cultures from embryonic rat brains; experiment: Rat oscillation assay (FLIPR, neuronal calcium oscillations); type: cell-based; settings: Rattus norvegicus
Description: This assay is a functional phenotypic assay designed to mimic epileptic seizures using primary neuronal cultures from embryonic rat brains, which form a functional neuronal network that generate synchronized intracellular calcium concentration oscillations when cultured at high density in 384-well plate. The epileptic phenotype is induced by incubating the neurons in magnesium-free assay buffer, that results in increased probability of NMDA receptor activation, leading to an increased frequency and amplitude of intracellular calcium oscillations. Once neurons are incubated with the calcium indicator dye Fluo-8 AM (Tebu-bio), neuronal calcium oscillations can be monitored in real time using FLIPR® Tetra (fluorometric plate reader, Molecular Devices). With these recordings, the effect of anti-epileptic drugs can be quantified. The anti-epileptic effect of compounds, which activate directly or indirectly the Kv7 channels can be modulated by the Kv7 channel blocker XE-991. The assay was performed as described previously (Pacico N, Mingorance-Le Meur A. New In Vitro Phenotypic Assay for Epilepsy: Fluorescent Measurement of Synchronized Neuronal Calcium Oscillations. PLoS ONE 9(1) 2014) with modifications described hereafter.
Animal care followed standard procedures in accordance with swiss institutional guidelines. Dissociated neuronal cultures were obtained from cerebral cortices of embryonic Wistar rats at embryonic stage E18 (Charles River). The uterine horns were removed by caesarian surgery from deeply anesthetized rats (Isofurane) and sacrificed by decapitation. The embryos were decapitated by closing forceps. The brains were isolated and dissected one by one in ice-cold PBS (Life Technologies) under optical control using a binocular. Meninges, olfactory bulbs, and basal ganglia were removed. Cortical hemispheres (still including the hippocampus) were cut in small pieces with tweezers and placed on ice in prechilled Hibernate-E medium (Life technology). The hemispheres were then incubated in 10 mL of Hibernate-E containing 15 U/mL papain (Worthington) for 25 min at 30° C. with gentle mixing every 10 min. Genomic DNA was then digested by prolonging the incubation during 10 min at 37° C. in presence of 4 U/mL rDNase I (Ambion). The obtained suspension was then centrifuged at 800 g for 5 min and the cell pellet was resuspended in 2 mL Hibernate-E and gently dissociated by pipetting up and down 10 times with a plastic Pasteur pipette resulting in a homogenous cell suspension. This suspension was immediately filtered through a 70 µm cell strainer (MACS® SmartStrainer, Miltenyi), collected in 10 mL Hibernate-E and centrifuged at 800 g for 5 min. The cell pellet was resuspended in Neurobasal medium, supplemented with 2% B-27, 0.5 mM Glutamax-I, 100 U/mL penicillin, 100 µg/mL streptomycin (Life Technologies) and diluted at the final concentration of 300′000 cells/mL. One day before plating the cells, 384-well plates were coated with 25 µL/well of 0.1 % poly-L-lysine solution (Sigma), incubated overnight at 37° C., washed two times with sterile distilled water and allowed to dry at room temperature for >2 h. The neurons were seeded at a density of 15′000 cells/well in 50 µL/well in a 384-well black, clear-bottomed plates (Corning) and subsequently maintained in an incubator at 37° C., 5% CO2 and 95% humidity for 8 to 10 days. After 3 and 7 days, 40% of media was renewed under sterile conditions.
Neurons seeded in the assay plates were washed with Hank’s balanced salt solution (HBSS) devoid of Ca^2+ and Mg^2+, supplemented with 20 mM HEPES (Life Technologies) and 2 mM CaCl2 (Sigma), pH 7.4 (hereafter called Assay buffer) using a Biotek EL406 plate washer. Neurons were loaded with 1 µM Fluo-8 AM in Assay buffer for 15 min at 37° C., 5% CO2. […]

[2] = tested on: audiogenic generalized convulsive seizures in DBA/2J mice; experiment: Audiogenic seizure-sensitive mouse model of generalized convulsive seizures; type: in vivo; settings: 30 mg/kg po, challenge 1h
Description: Compounds were formulated in a 10% polyethylene glycol 400 (PEG 400) / 90% aqueous solution of 0.5 % methylcellulose (MC 0.5%). Firstly drugs are dissolved in PEG 400 and then suspended in MC 0.5 % for oral gavage at Xmg/5 mL/kg (X see table).
• 1. Procedure: Following two days of acclimatisation, auditory seizures are induced in male juvenile DBA/2J mice (22-24 days old; Janvier Labs, France). Each mouse is placed individually in the exposure chamber, an hemispheric acrylic glass dome (diameter: 50 cm) within a sound-attenuated box. The soundattenuated box is equipped with two house lights and a camera system (Fire-I from Unibrain) in order to observe and record the behavioral seizure response. After 60 seconds of habituation, the stimulus, a mixed frequency tone of 15-20 kHz at 110 dB (SASLab Lite, Avisoft Bioacoustics), is played from a speaker that is placed on the top center of the dome. […] Seizures are classified as following: stage 0, normal behavior; stage 1, wild running; stage 2, generalized clonus; stage 3, tonic extension of the hind limbs. • 2. Compounds testing: Acute compound effects on audiogenic generalized convulsive seizures are evaluated in independent groups of 8-10 mice randomly assigned. Following oral administration of compound or vehicle, the maximum seizure stage during sound exposure is assessed. Compounds are given 1 hour before exposure to the stimulus. Each mouse is exposed to the auditory stimulus only once and euthanized afterwards by CO2 inhalation.

[3] = 20 min, 20 min after compound addition, AUC of fluorescence, read-out: FLIPR: IC50 [nM] 20 min
[4] = Cortical neurone, acute phase, ratio of AUC fluorescence before and after compound addition, rat cortical neurons, Mg-free buffer, read-out: FLIPR: IC50 [nM] acute

Row | Compound | IC50 [1, 3] [nM] | IC50 [1, 4] [nM] | Seizure stage [% vs. vehicle] [2] [% vs. vehicle]
1 | O=C(NCc1cccc(OCC(F)(F)F)c1)NC12CC(F)(C1)C2 [Example 17, 1-(3-Fluoro-Bicyclo[1.1.1]Pent-1-yl)-3-[3-(2,2,2-Trifluoro-Ethoxy)-Benzyl]-Urea] | 239 | 202 | 
2 | O=C(NCc1cccc(OCC(F)(F)F)c1)NC1CC(C(F)F)C1 (centres unmarked) [Example 18, 1-(3-Difluoromethyl-cyclobutyl)-3-[3-(2,2,2-trifluoro-ethoxy)-benzyl]-urea] | 1080 | 377 | 
3 | O=C(NCc1cccc(OCC(F)(F)F)c1)NC12CC(C(F)(F)F)(C1)C2 [Example 19, 1-[3-(2,2,2-Trifluoro-ethoxy)-benzyl]-3-(3-trifluoromethyl-bicyclo[1.1.1]pent-1-yl)-urea] | 111 | 50 | 
4 | O=C(NCc1cccc(OC(F)F)c1)NC12CC(F)(C1)C2 [Example 20, 1-(3-Difluoromethoxy-Benzyl)-3-(3-Fluoro-Bicyclo[1.1.1]Pent-1-yl)-Urea] | 467 | 566 | 
5 | O=C(NCc1cccc(OC(F)F)c1)NC1CC(C(F)F)C1 (centres unmarked) [Example 21, 1-(3-Difluoromethoxy-benzyl)-3-(3-difluoromethyl-cyclobutyl)-urea] | 942 | 373 | 
6 | O=C(NCc1cccc(OC(F)F)c1)NC12CC(C(F)(F)F)(C1)C2 [Example 22, 1-(3-Difluoromethoxy-benzyl)-3-(3-trifluoromethyl-bicyclo[1.1.1]pent-1-yl)-urea] | 311 | 134 | 
7 | O=C(NCc1cccc(OC(F)(F)F)c1)NC12CC(C(F)(F)F)(C1)C2 [Example 23, 1-(3-Trifluoromethoxy-Benzyl)-3-(3-Trifluoromethyl-Bicyclo[1.1.1]Pent-1-yl)-Urea] | 53 | 75 | -85
8 | O=C(NCc1cccc(OC(F)(F)F)c1)NC1CC(C(F)F)C1 (centres unmarked) [Example 25, 1-(3-Difluoromethyl-cyclobutyl)-3-(3-trifluoromethoxy-benzyl)-urea] | 610 | 235 | 
9 | O=C(NCc1cccc(OC(F)(F)F)c1)NC12CC(C1)C2 [Example 26, 1-Bicyclo[1.1.1]pent-1-yl-3-(3-trifluoromethoxy-benzyl)-urea] | 315 | 295 | 
10 | O=C(NCc1cccc(C(F)F)c1)NC1CC(C(F)F)C1 (centres unmarked) [Example 27, 1-(3-Difluoromethyl-Benzyl)-3-(3-Difluoromethyl-Cyclobutyl)-Urea] | 1730 | 1340 | 
11 | O=C(NCc1cccc(C(F)F)c1)NC12CC(C(F)(F)F)(C1)C2 [Example 28, 1-(3-Difluoromethyl-Benzyl)-3-(3-Trifluoromethyl-Bicyclo[1.1.1]Pent-1-yl)-urea] | 203 | 117 | 
12 | O=C(NCc1ccnc(OC(F)(F)F)c1)NC1CC(C(F)F)C1 (centres unmarked) [Example 29, 1-(3-Difluoromethyl-Cyclobutyl)-3-(2-Trifluoromethoxy-Pyridin-4-Ylmethyl)-Urea] | 2150 | 367 | 
13 | O=C(NCc1ccnc(OC(F)(F)F)c1)NC12CC(C(F)(F)F)(C1)C2 [Example 30, 1-(2-Trifluoromethoxy-Pyridin-4-Ylmethyl)-3-(3-Trifluoromethyl-Bicyclo[1.1.1]Pent-1-yl)-Urea] | 1480 | 804 | 
14 | O=C(NCc1cccc(C(F)(F)F)c1)NC12CC(C1)C2 [Example 35, 1-Bicyclo[1.1.1]Pent-1-yl-3-(3-Trifluoromethyl-Benzyl)-Urea] | 717 | 231 | 
15 | O=C(NCc1cccc(C(F)(F)F)c1)NC12CC(F)(C1)C2 [Example 36, 1-(3-Fluoro-bicyclo[1.1.1]pent-1-yl)-3-(3-trifluoromethyl-benzyl)-urea] | 344 | 245 | 
16 | O=C(NCc1cccc(C(F)(F)F)c1)NC1CC(C(F)F)C1 (centres unmarked) [Example 38, 1-(3-Difluoromethyl-cyclobutyl)-3-(3-trifluoromethyl-benzyl)-urea] | 390 | 135 | 
17 | CC12CC(NC(=O)NCc3cccc(C(F)(F)F)c3)(C1)C2 [Example 39, 1-(3-Methyl-bicyclo[1.1.1]pent-1-yl)-3-(3-trifluoromethyl-benzyl)-urea] | 68 | 41 | 
18 | O=C(NCc1cccc(C(F)(F)F)c1)NC12CC(CF)(C1)C2 [Example 40, 1-(3-Fluoromethyl-bicyclo[1.1.1]pent-1-yl)-3-(3-trifluoromethyl-benzyl)-urea] | 248 | 149 | 
19 | O=C(NCc1cccc(C(F)(F)F)c1)NC1CC(C(F)(F)F)C1 (centres unmarked) [Example 41, 1-(3-Trifluoromethyl-benzyl)-3-(3-trifluoromethyl-cyclobutyl)-urea] | 117 | 73 | 
20 | O=C(NCc1cccc(C(F)(F)F)c1)NC1CC(O)(C(F)(F)F)C1 (centres unmarked) [Example 42, 1-(3-Hydroxy-3-trifluoromethyl-cyclobutyl)-3-(3-trifluoromethyl-benzyl)-urea] | 1920 | 1170 | 
21 | O=C(NCc1ccnc(OCC(F)(F)F)c1)NC12CC(C1)C2 [Example 43, 1-Bicyclo[1.1.1]Pent-1-yl-3-[2-(2,2,2-Trifluoro-Ethoxy)-Pyridin-4-Ylmethyl]-Urea] | 967 | 578 | 
22 | O=C(NCc1ccnc(OCC(F)(F)F)c1)NC12CC(F)(C1)C2 [Example 44, 1-(3-Fluoro-bicyclo[1.1.1]pent-1-yl)-3-[2-(2,2,2-trifluoro-ethoxy)-pyridin-4-ylmethyl]-urea] | 1350 | 591 | 
23 | O=C(NCc1ccnc(OCC(F)(F)F)c1)NC12CC(C(F)(F)F)(C1)C2 [Example 45, 1-[2-(2,2,2-Trifluoro-ethoxy)-pyridin-4-ylmethyl]-3-(3-trifluoromethyl-bicyclo[1.1.1]pent-1-yl)-urea] | 701 | 131 | 
24 | O=C(NCc1ccnc(OCC(F)(F)F)c1)NC1CC(C(F)F)C1 (centres unmarked) [Example 46, 1-(3-Difluoromethyl-cyclobutyl)-3-[2-(2,2,2-trifluoro-ethoxy)-pyridin-4-ylmethyl]-urea] | 257 | 148 | 
25 | O=C(NCc1cccc(C(F)(F)F)c1)NC12CCC(C1)C2 [Example 48, 1-Bicyclo[2.1.1]Hex-1-yl-3-(3-Trifluoromethyl-Benzyl)-Urea] | 484 | 232 | 
26 | CC1(NC(=O)NCc2cccc(C(F)(F)F)c2)CC(F)(F)C1 [Example 49, 1-(3,3-Difluoro-1-Methyl-Cyclobutyl)-3-(3-Trifluoromethyl-Benzyl)-Urea] | 628 | 247 | 
